The structures appear in SMILES notation.

For test [1], the system named is transgenic Arabidopsis plants expressing AtHPPD M335Y, P336A, E363Q. Description: Greenhouse herbicide spray test, transgenic Arabidopsis plants (T2). Type of test: in vivo, Arabidopsis thaliana. The settings on record: two weeks after treatment. From the text: (§1) For post emergence treatment, the test plants are first grown to a height of 3 to 15 cm, depending on the plant habit, and only then treated with the herbicides. For this purpose, the test plants are either sown directly and grown in the same containers, or they are first grown separately and transplanted into the test containers a few days prior to treatment.
(§2) Additionally, T1 and T2 transgenic Arabidopsis plants can be tested for improved tolerance to N-heterocyclyl-arylcarboxamides in a greenhouse studies. Herbicide injury scoring is done 2-3 weeks after treatment and is rated on a scale of 0 to 100%, 0% being no injury and 100% being complete death.

The subject of test [2] is transgenic Arabidopsis plants expressing AtHPPD M335H, P336A, E363Q. Described as above. Format: in vivo, Arabidopsis thaliana. The settings on record: two weeks after treatment.
Description: as §1, §2

For test [3], the system named is Lolium HPPD. Description: HPPD activity assay, wildtype enzyme. Format: biochemical. The settings on record: Table 12, normalized to Arabidopsis HPPD. The protocol:
(§3) HPPD produces homogentisic acid and CO2 from 4-hydroxyphenylpyruvate (4-HPP) and O2. The activity assay for HPPD is based on the analysis of homogentisic acid by reversed phase HPLC.
(§4) The assay mixture can contain 150 mM potassium phosphate buffer pH 7.0, 50 mM L-ascorbic acid, 100 μM Catalase (Sigma-Aldrich), 1 μM FeSO4 and 0.2 units of purified HPPD enzyme in a total volume of 505 μl. 1 unit is defined as the amount of enzyme that is required to produce 1 nmol of HGA per minute at 20° C.
(§5) After a preincubation of 30 min the reaction is started by adding 4-HPP to a final concentration of 0.05 mM. The reaction is allowed to proceed for 45 min at room temperature. The reaction is stopped by the addition of 50 μl of 4.5 M phosphoric acid. The sample is filtered using a […] pore size PVDF filtration device.
(§6) 5 μl of the cleared sample is analyzed on an UPLC HSS T3 column (particle size 1.8 μm, dimensions 2.1×50 mm; Waters) by isocratic elution using 90% 20 mM NaH2PO4 pH 2.2, 10% methanol (v/v).
(§7) HGA is detected electrochemically at 750 mV (mode: DC; polarity: positive) and quantified by integrating peak areas (Empower software; Waters).
(§8) Inhibitors are dissolved in DMSO (dimethylsulfoxide) to a concentration of 0.5 mM. From this stock solution serial five-fold dilutions are prepared in DMSO, which are used in the assay. The respective inhibitor solution accounts for 1% of the assay volume. Thus, final inhibitor concentrations range from […], respectively. Activities are normalized by setting the uninhibited enzyme activity to 100%. IC50 values are calculated using non-linear regression.
(§9) Using methods which are described in the above examples or well known in the art, purified, recombinant wildtype HPPD enzymes are characterized with respect to their kinetic properties and sensitivity towards HPPD inhibiting herbicides. Apparent michaelis constants (Km) and maximal reaction velocities (Vmax) are calculated by non-linear regression with the software GraphPad Prism 5 (GraphPad Software, La Jolla, USA) using a substrate inhibition model. Apparent kcat values are calculated from Vmax assuming 100% purity of the enzyme preparation. Weighted means (by standard error) of Km and IC50 values are calculated from at least three independent experiments. The Cheng-Prusoff equation for competitive inhibition (Cheng, Y. C.; Prusoff, W. H. Biochem Pharmacol 1973, 22, 3099-3108) is used to calculate dissociation constants (Ki).
(§10) Field performance of the HPPD enzyme, which is used as a herbicide tolerance trait may depend not only on its lack of sensitivity towards HPPD inhibiting herbicides but also on its activity. To assess the potential performance of a herbicide tolerance trait a tolerance index (TI) is calculated using the following formula: […]

The subject of test [4] is Rhodococcus HPPD (Seq ID 46). As to the kind of experiment: HPPD activity assay, wildtype enzyme. Type of test: biochemical. The settings on record: Table 12, normalized to Arabidopsis HPPD; Rhodococcus (Seq ID 46). Here is the method: as §3, §4, §5, §6, §7, §8, §9, §10
Test [5] concerns Rhodococcus HPPD (Seq ID 44). Description: HPPD activity assay, wildtype enzyme. Type of test: biochemical. The settings on record: Table 12, normalized to Arabidopsis HPPD; Rhodococcus (Seq ID 44). The protocol:
as §3, §4, §5, §6, §7, §8, §9, §10

Test [6] has as its system Kordia HPPD. Description: HPPD activity assay, wildtype enzyme. The settings on record: Table 12, normalized to Arabidopsis HPPD. Type of test: biochemical. Here is the method:
as §3, §4, §5, §6, §7, §8, §9, §10

Test [7] has as its target T1, Arabidopsis HPPD (SEQ ID: 53) M335H, P336A, E363Q (Arabidopsis thaliana, UniProt P93836, E363Q/M335H/P336A).
T1 construct: PCR-based site directed mutagenesis of pEXP5-NT/TOPO®-AtHPPD; His6 (N); made in house; host or cells: E. coli BL21 (DE3)
Description: HPPD activity assay, mutant enzyme. Format: biochemical. The settings on record: Table 15, normalized to Arabidopsis wild-type. The protocol:
as §3, §4, §5, §6, §7
(§11) Inhibitors are dissolved in DMSO (dimethylsulfoxide) to a concentration of 0.5 mM. From this stock solution serial five-fold dilutions are prepared in DMSO, which are used in the assay. The respective inhibitor solution accounts for 1% of the assay volume. […] Activities are normalized by setting the uninhibited enzyme activity to 100%. IC50 values are calculated using non-linear regression.
(§12) Purified, mutant HPPD enzymes are obtained by the methods described above. Dose response and kinetic measurements are carried out using the described HPPD activity assay. Apparent michaelis constants (Km) and maximal reaction velocities (Vmax) are calculated by non-linear regression with the software GraphPad Prism 5 (GraphPad Software, La Jolla, USA) using a substrate inhibition model. […] Weighted means (by standard error) of Km and IC50 values are calculated from at least three independent experiments.
(§13) Field performance of the optimized HPPD enzyme, which is used as a herbicide tolerance trait may depend not only on its lack of sensitivity towards HPPD inhibiting herbicides but also on its activity. To assess the potential performance of a herbicide tolerance trait a tolerance index (TI) is calculated using the following formula: […]
(§14) Easy comparison and ranking of each trait is enabled by normalizing tolerance indexes on Arabidopsis or Hordeum wild-type HPPD.

Test [8] has as its target T2, Arabidopsis HPPD (SEQ ID: 53) M335H, P336G (Arabidopsis thaliana, UniProt P93836, M335H/P336G).
T2 construct: PCR-based site directed mutagenesis of pEXP5-NT/TOPO®-AtHPPD; His6 (N); made in house; host or cells: E. coli BL21 (DE3)
Description: HPPD activity assay, mutant enzyme. Format: biochemical. The settings on record: Table 15, normalized to Arabidopsis wild-type. Here is the method: as §3, §4, §5, §6, §7, §11, §12, §13, §14

Test [9] has as its target T3, Arabidopsis HPPD (SEQ ID: 53) F381L (Arabidopsis thaliana, UniProt P93836, F381L).
T3 construct: PCR-based site directed mutagenesis of pEXP5-NT/TOPO®-AtHPPD; His6 (N); made in house; host or cells: E. coli BL21 (DE3)
As to the kind of experiment: HPPD activity assay, mutant enzyme. Type of test: biochemical. The settings on record: Table 15, normalized to Arabidopsis wild-type. The protocol:
as §3, §4, §5, §6, §7, §11, §12, §13, §14

For test [10], the target named is T4, Arabidopsis HPPD (SEQ ID: 53) F381I (Arabidopsis thaliana, UniProt P93836, F381I).
T4 construct: PCR-based site directed mutagenesis of pEXP5-NT/TOPO®-AtHPPD; His6 (N); made in house; host or cells: E. coli BL21 (DE3)
Description: HPPD activity assay, mutant enzyme. Type of test: biochemical. The settings on record: Table 15, normalized to Arabidopsis wild-type. Here is the method: as §3, §4, §5, §6, §7, §11, §12, §13, §14

T3 sequence (P93836 whole entry F381L): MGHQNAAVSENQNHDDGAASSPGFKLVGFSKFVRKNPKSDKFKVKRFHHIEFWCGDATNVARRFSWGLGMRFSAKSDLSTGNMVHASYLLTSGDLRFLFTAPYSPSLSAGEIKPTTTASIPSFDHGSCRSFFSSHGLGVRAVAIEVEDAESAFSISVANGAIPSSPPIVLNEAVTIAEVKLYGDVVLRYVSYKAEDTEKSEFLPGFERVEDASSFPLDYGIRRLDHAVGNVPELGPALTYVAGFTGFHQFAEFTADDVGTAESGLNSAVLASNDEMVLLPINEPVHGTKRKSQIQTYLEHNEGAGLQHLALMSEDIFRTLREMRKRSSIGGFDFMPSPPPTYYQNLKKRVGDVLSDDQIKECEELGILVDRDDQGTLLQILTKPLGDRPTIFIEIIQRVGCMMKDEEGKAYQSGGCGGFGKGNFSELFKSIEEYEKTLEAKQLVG
T2 sequence (P93836 whole entry M335H/P336G): as the sequence (P93836 whole entry F381L) above, with M335H, P336G, L381F counted along it
T4 sequence (P93836 whole entry F381I): as the sequence (P93836 whole entry F381L) above, with L381I counted along it
T1 sequence (P93836 whole entry M335H/P336A/E363Q): as the sequence (P93836 whole entry F381L) above, with M335H, P336A, E363Q, L381F counted along it

For the molecule `Cc1nonc1NC(=O)c1ccc(S(C)(=O)=O)c(S(C)(=O)=O)c1C` [Inhibitor 1, 2-methyl-N-(4-methyl-1,2,5-oxadiazol-3-yl)-3,4-bis(methylsulfonyl)benzamide], the Injury evaluation in test [1] (1.56 g/ha) stood at 12%; in test [1] (3.125 g/ha), 23%; in test [1] (6.25 g/ha) it was 58%; in test [1] (12.5 g/ha), 52%; in test [2] (1.56 g/ha), 3%; in [2] (3.125 g/ha), 13%. Further, the Injury evaluation in [2] (6.25 g/ha) and in test [2] (12.5 g/ha) was 42% each time. Moreover, the “Normalized tolerance index TI Inhibitor 1” value in test [3] is 1.7; in [4] it was 12.4; in test [5], 183.5; in test [6], 3.5; in test [7], 6.7; in [8], 3.6. Moreover, the entries for the “Normalized tolerance index TI Inhibitor 1” value in test [9] and in [10] were 35.2 and 37, respectively.

For the origin of these results see patent US10829778B2, “Plants having increased tolerance to herbicides” (BASF SE, priority 2013, dated 2020).
